Test results published in US20250099427A1, “Drug and Method of Treating or Preventing Renal Disease Using Drug” (Showa University, priority 2018, published 2025).

What was measured:
Format in all cases: in vivo, mouse
[1] = tested on: Chronic Renal Failure Animal Model; experiment: Test using chronic renal failure animal model (nephrectomy + acetic acid application), renal function parameters; details: Table 10 experiment (edaravone instead of SMTP-7); 30 mg/kg, same regimen as the SMTP-7 30 mg/kg group
Description: A male ddY strain mouse (body weight: 30 g to 40 g) was used. Under anesthesia with isoflurane, the right flank of the mouse was incised, the renal arteries and veins were ligated, and then the right kidney was isolated. After suturing, acrinol was applied to the suture site as a disinfection treatment, and enrofloxacin was subcutaneously administered at 5 mg/kg as a preventive measure against infection, and acetaminophen was subcutaneously administered at 75 mg/kg as an analgesic treatment. After a recovery period of 3 to 4 weeks, the left abdomen of the mouse was incised, 100% acetic acid was applied to both sides of the kidney 10 times. This was defined as one course, and two courses were conducted at 5 minute intervals. After suturing, postoperative treatment was conducted in the same manner as in the removal of one of the kidneys. Considering the effect of surgery, a sham group to which acetic acid was not applied was provided.
4 weeks after the application of acetic acid, SMTP-7 was administered at a dose of 10 mg/kg or 30 mg/kg. The administration was carried out three times a week for 8 consecutive weeks by intraperitoneal administration. In addition, physiological saline was similarly administered to the sham group (without acetic acid application) and the Control group (with acetic acid application).
12 weeks after the application of acetic acid, urine was collected for 24 hours using a metabolic cage, and the urinary output was measured. During collecting urine, water was freely given. After urine collection, blood was collected from the descending aorta, the collected blood was centrifuged at 3000 rpm for 15 minutes, serum was separated, and BUN (urea nitrogen) and sCr (serum creatinine value) were measured. Further, protein and creatinine in the urine were also measured to calculate creatinine clearance (Ccr). BUN was measured using Urea B-test Wako (manufactured by Wako Pure Chemical Industries, Ltd.) and a QuantiChrom Urea Assay Kit (manufactured by Funakoshi Co., Ltd.), sCr was measured using Lab Assay Creatinine (manufactured by Wako Pure Chemical Industries, Ltd.), and urinary protein was measured using a BCA Protein assay kit (Thermo Fisher Scientific).
Renal function was evaluated by measuring BUN, sCr, urinary output, and urinary protein. In addition, urinary creatinine was measured to calculate creatinine clearance (Ccr).
In Table 9, the experimental results are expressed in mean±standard error. With reference to statistically significant difference, an unpaired test between two groups (Student's t-test) was conducted for comparison between two groups, and one-way analysis of variance was conducted and then a Dunnett test was conducted for comparison among multiple groups. In all cases, a significance level of 5% or less (P<0.05) was regarded as significant difference.
The experiment and evaluation were carried out in the same manner as in the SMTP-7 (30 mg/kg) administration group, except that edaravone (30 mg/kg) was administered instead of SMTP-7 in the SMTP-7 (30 mg/kg) administration group.

[2] = tested on: Acute Renal Failure Animal Model; experiment: Test using acute renal failure animal model (renal ischemia and reperfusion), renal function parameters; details: for Cer: creatinine clearance; for FENa: fractional excretion of sodium; for KW: kidney weight
Source text: A male ddY strain mouse (30 g) was used as an experimental animal. Under anesthesia with isoflurane, the right flank was incised about 2 cm to expose the kidney. After ligating the renal arteries and veins and the ureter, the right kidney was isolated.
A recovery period of 2 weeks was given, and then an acute renal failure mouse model was produced. Under anesthesia with isoflurane, the left abdomen was incised about 3 cm to expose the left kidney, and the fat around the renal arteries and veins was removed. The blood flow in the left renal arteries and veins was blocked using an atraumatic clip, and the kidney was left in ischemia for 45 minutes. The blood flow was then reperfused by removing the atraumatic clip, the kidney was returned to the abdominal cavity, and the flank was sutured. Mice similarly subjected to the steps other than the ischemia and reperfusion steps using the atraumatic clip were designated as a sham group (eight mice).
After 15 minutes of the initiation of ischemia, the vehicle, SMTP-7, SMTP-27, SMTP-44D, and edaravone were continuously administered to the femoral vein for 30 minutes.
24 hours after the ischemia and reperfusion processes, urine was collected for 24 hours using a metabolic cage, and the urinary output (UF; μL/min/kg) was measured. During collecting urine, only water was freely given. After urine collection, the body weight of each mouse was measured, and blood was collected from the abdominal aorta under anesthesia with isoflurane. After blood collection, the left kidney was isolated and the fat was removed in physiological saline. The kidney weight (KW; mg/g) was measured, and then the kidney was fixed in a 10% neutral buffered formalin solution for Hematoxylin Eosin (HE) staining.
The collected blood was centrifuged at 800×g for 15 minutes at 25° C. to collect serum. Further, the urine collected using a metabolic cage was also used to evaluate renal function. In order to evaluate parameters in the serum, blood urea nitrogen (BUN; mg/dL) was measured using a QuantiChrom Urea Assay Kit (Funakoshi Co., Ltd.). Serum creatinine concentration (Scr; mg/dL) and urinary creatinine concentration (Ucr; mg/dL) were measured using LabAssay (trademark) Creatinine (manufactured by Wako Pure Chemical Industries, Ltd.), and creatinine clearance (Ccr; mL/min/kg) was calculated. The concentrations of sodium in the serum and urine were measured using Fuji Dry Chem 7000 (manufactured by FUJIFILM Corporation), and fractional excretion of sodium (FENa; %) was calculated. Urinary albumin concentration (Ualb; mg/hr/kg) was measured using Albwel M (manufactured by Cosmo Bio Co., Ltd.).
(§1) In Table 11, the experimental results are expressed in mean±standard error in eight mice in each group. For comparison among multiple groups, firstly, one-way analysis of variance (ANOVA) was conducted, and then a Bonferroni test was conducted, if significant difference was recognized. Significant difference was recognized with a significance level of less than 5% (P<0.05).

[3] = tested on: Acute Renal Failure Animal Model; experiment: Acute renal failure animal model, pathological tissue specimen (HE staining) lesion scores; details: 3 mg/kg
Description: 24 hours after the ischemia and reperfusion processes, urine was collected for 24 hours using a metabolic cage, measurement of body weight was conducted, and blood was collected. Thereafter, nephrectomy was conducted, and formalin-fixed kidney was permeated with paraffin using an automatic embedding device to produce a paraffin block. The paraffin block was sliced into 3 μm sections with a microtome, and placed on a slide glass. Then, the sections were stretched with a paraffin stretcher at 52° C., and sufficiently dried overnight in a paraffin melter at 37° C. After deparaffinization and washing with water, the sections were stained with a Mayer's hematoxylin staining solution for 1 minute and washed with running water for 15 minutes. Thereafter, the sections were stained with an eosin staining solution for 45 seconds, and dehydrated with 80% to 100% ethanol, followed by clearing with xylene and sealing with marinol. Each specimen was examined microscopically at a magnification of 50 using an optical microscope. With respect to tubular dilatation, tubular necrosis, and tubular casts in the cortex, outer zone of outer medulla, and inner zone of outer medulla, the percentage of lesions in each site was evaluated according to the following criteria.
as §1, with “12,” for “11,”

[4] = 3 mg/kg continuous femoral vein 30 min from 15 min after start of 45 min ischemia, mean±SE, 8 mice
[5] = 3 mg/kg, acute renal failure model
[6] = 3 mg/kg continuous femoral vein 30 min from 15 min after start of 45 min ischemia, mean±SE, 8 mice, 3 mg/kg
[7] = points 0 (no lesion) to 4 (severe, 50% or more), mean±SE, 8 mice
[8] = 30 mg/kg continuous femoral vein 30 min from 15 min after start of 45 min ischemia, mean±SE, 8 mice
[9] = 30 mg/kg, acute renal failure model
[10] = 30 mg/kg continuous femoral vein 30 min from 15 min after start of 45 min ischemia, mean±SE, 8 mice, 30 mg/kg
[11] = urinary albumin, 30 mg/kg continuous femoral vein 30 min from 15 min after start of 45 min ischemia, mean±SE, 8 mice
[12] = urinary output, 30 mg/kg continuous femoral vein 30 min from 15 min after start of 45 min ischemia, mean±SE, 8 mice

Compound: CC1=NN(c2ccccc2)C(=O)C1 [edaravone, reference compound]
- Urinary output [1]: 90.5 ± 16.9 mL/kg/day
- Urinary protein [1]: 553 ± 109 mg/kg/day
- BUN [2, 4]: 61.1 ± 5.9 mg/dL
- Scr [2, 4]: 0.5 ± 0.0 mg/dL
- UF [2, 5]: 55.3 ± 12.1 µL/min/kg
- Ualb [2, 5]: 0.9 ± 0.2 mg/h/kg
- Cer [2, 6]: 2.1 ± 0.2 mL/min/kg
- FENa [2, 6]: 1.0±0.1%
- KW [2, 6]: 13.4 ± 0.6 mg/g
- Ualb ([2]; urinary albumin, 3 mg/kg continuous femoral vein 30 min from 15 min after start of 45 min ischemia, mean±SE, 8 mice): 0.9 ± 0.2 mg/h/kg
- UF ([2]; urinary output, 3 mg/kg continuous femoral vein 30 min from 15 min after start of 45 min ischemia, mean±SE, 8 mice): 55.3 ± 12.1 µL/min/kg
- Histopathological changes (lesion changes), result in words ([3]; compared to control group): lesion changes were significantly improved only in tubular necrosis and tubular casts in the outer zone of outer medulla of the kidney and tubular casts in the inner zone of outer medulla
- Tubular cast score, Cortex [3, 7]: 0.9 ± 0.1
- Tubular cast score, Inner zone of outer medulla [3, 7]: 1.5 ± 0.4
- Tubular cast score, Outer zone of outer medulla [3, 7]: 1.0 ± 0.2
- Tubular dilatation score, Cortex [3, 7]: 3.0 ± 0.5
- Tubular dilatation score, Inner zone of outer medulla [3, 7]: 2.4 ± 0.5
- Tubular dilatation score, Outer zone of outer medulla [3, 7]: 2.4 ± 0.5
- Tubular necrosis score, Cortex [3, 7]: 0.9 ± 0.1
- Tubular necrosis score, Inner zone of outer medulla [3, 7]: 0.9 ± 0.1
- Tubular necrosis score, Outer zone of outer medulla [3, 7]: 0.9 ± 0.1

Compound: CC(C)=CCC/C(C)=C/CCC1(C)Oc2c(c(O)cc3c2CN(c2cc(C(=O)O)ccc2O)C3=O)CC1O (stereo not drawn) [SMTP-27]
- BUN [2, 8]: 59.7 ± 10.5 mg/dL
- Scr [2, 8]: 0.5 ± 0.0 mg/dL
- UF [2, 9]: 77.8 ± 16.4 µL/min/kg
- Ualb [2, 9]: 2.0 ± 0.4 mg/h/kg
- Cer [2, 10]: 2.5 ± 0.1 mL/min/kg
- FENa [2, 10]: 0.8±0.1%
- KW [2, 10]: 13.8 ± 0.7 mg/g
- Ualb [2, 11]: 2 ± 0.4 mg/h/kg
- UF [2, 12]: 77.8 ± 16.4 µL/min/kg

Compound: CC(C)=CCCC(C)=CCCC1(C)Oc2c(c(O)cc3c2CN(C(C(=O)O)c2ccc(O)cc2)C3=O)CC1O (stereo not drawn) [SMTP-44D]
- BUN [2, 8]: 55.7 ± 14.2 mg/dL
- Scr [2, 8]: 0.6 ± 0.1 mg/dL
- UF [2, 9]: 103.2 ± 33.47 µL/min/kg
- Ualb [2, 9]: 1.3 ± 0.3 mg/h/kg
- Cer [2, 10]: 2.3 ± 0.4 mL/min/kg
- FENa [2, 10]: 1.2±0.1%
- KW [2, 10]: 12.3 ± 1.2 mg/g
- Ualb [2, 11]: 1.3 ± 0.3 mg/h/kg
- UF [2, 12]: 103 ± 33.7 µL/min/kg
